According to US20080299599A1, “FLUORESCENT PROTEINS FOR MONITORING INTRACELLULAR SUPEROXIDE PRODUCTION” (priority 2006, published 2008):
Read-outs that look alike come from different tables or passages of the source.

Tests used:
[1] = test system: superoxide flashes in rat cardiac myocytes; assay: Confocal imaging of superoxide flashes in cardiac myocytes expressing mt-cpYFP; type: cell-based; conditions: for occurrence of superoxide flashes: cardiac myocytes
Experimental: Similar conditions were used when expressing mt-cpYFP in other cell types. […] Briefly, cells were loaded with 4 μM rhod-2 AM (after NaBH4 quenching) at 4° C. for 1 hr, and then changed to normal culture medium for 4 hrs. […] Digital image processing was performed using IDL software (Research Systems) and customer-devised programs.

[2] = test system: rat PC12 pheochromocytoma cells; type: cell-based; conditions: for occurrence of superoxide flashes: ρ− PC12 cells; for incidence of superoxide flashes: ethidium bromide 200 ng/ml for 60 days, PC12 cells
Source text: (§1) Enzymatically isolated rat ventricular myocytes and hippocampal neurons in primary culture were infected with adenovirus carrying the mt-cpYFP gene or its mutants at an m.o.i. of 1:100 and cultured for 2 to 3 days (Zhou et al., Am. J. Physiol. Heart Circ. Physiol., 279; H429-H436, 2000). Similar conditions were used when expressing mt-cpYFP in other cell types. To obtain spatially and temporally resolved fluorescent images of mt-cpYFP, a Zeiss LSM 510 confocal microscope equipped with a 63×, 1.3NA oil immersion objective and a sampling rate of 0.7 s/frame was used. Dual wavelength excitation imaging of mt-cpYFP was achieved by alternating excitation at 405 and 488 nm and collecting emission at >505 nm. Tri-wavelength excitation imaging of mt-cpYFP and TMRM (20 nM) or rhod-2 was achieved by tandem excitation at 405, 488, and 543 nm, and the emission was collected at 515-550, 515-550 and >560 nm, respectively. To increase mitochondrion retention of rhod-2, the indicator loading protocol described by Hajnoczky C et al. was used with modification (Hajnoczky et al., Cell, 82: 415-424, 2000). Briefly, cells were loaded with 4 μM rhod-2 AM (after NaBH4 quenching) at 4° C. for 1 hr, and then changed to normal culture medium for 4 hrs. The standard extracellular perfusion solution contained (in mM): NaCl 137, KCl 4.9, CaCl21, MgSO4 1.2, NaH2PO4 1.2, glucose 15, and HEPES 20 (pH 7.4). Digital image processing was performed using IDL software (Research Systems) and customer-devised programs.
(§2) ρ° 143B TK human osteosarcoma cells and its wild type control were a generous gift from Dr. Nadja C. de Souza-Pinto (National Institute on Aging, NIH). Wild type and ρ° 143B cells were cultured under identical conditions, in DMEM medium supplemented with 10% FBS, 100 μg/ml pyruvate, 100 μg/ml bromodeoxyuridine and 50 μg/ml uridine17. Mitochondria of ρ° 143B cells completely lack mitochondrial respiration, due to the loss of critical ETC proteins including constituents of complex I (ND1-6, ND4L), complex III (cytochrome b) and complex IV (COX I-III) encoded by mitochondrial DNA. To partially deplete mitochondrial DNA and allow partial disruption of mitochondrial respiration, PC12 pheochromocytoma cells were cultured in DMEM medium with 10% FBS, 200 ng/ml ethidium bromide, 100 μg/ml pyruvate and 50 μg/ml uridine for up to 60 days. Depletion of mitochondrial DNA was evidenced by western blot analysis of cytochrome C oxidase subunit I.

[3] = test system: ρ° 143B TK-human osteosarcoma cells; assay: Superoxide flashes in mitochondrial DNA-deleted ρ° 143B cells; type: cell-based; conditions: atractyloside 20 μM
Source text: as §1, with “Digital image processing was performed using IDL software (Research Systems) and customer-devised programs.” left out

[4] = test system: superoxide flashes in cardiac myocytes; assay: Superoxide flashes in cardiac myocytes during hypoxia and reoxygenation; type: cell-based, rat; conditions: diazoxide 30 μM added 20 min prior to hypoxia
Source text: as §1, with “Digital image processing was performed using IDL software (Research Systems) and customer-devised programs.” left out

[5] = test system: cytochrome C oxidase subunit I (COX-1); assay: Western blot of cytochrome C oxidase subunit I in ethidium bromide-treated PC12 cells; type: cell-based, rat; conditions: ethidium bromide 200 ng/ml for 60 days
Experimental: as §2

cellular ROS production = conditions: previous finding, Aon et al. 2003; cited from earlier work
[6] = Spectral analysis of purified cpYFP: in vitro redox calibration and response to ROS and metabolites; type: biochemical
Experimental: cpYFP cDNA (807 bp) was cloned into a prokaryotic expression vector (pRSET) and transferred into E. Coli cell line (BL21(DE3)LysS) for large-scale protein expression. In vitro redox calibration of cpYFP fluorescence was carried out using methods described previously (Hanson et al., J. Biol. Chem., 279: 13044-13053, 2004). Briefly, under an inert environment, purified cpYFP protein (1 μM) was incubated with either 10 mM reduced DTT or 1 mM aldrithiol for at least 3 hours, allowing for solution equilibration. Reduced DTT was removed from the solution allowing measurement of cpYFP response to various ROS and metabolites. The calibration solution contained (in mM): HEPES 75, KCl 125, and EDTA 1, pH=8.0. Emission and excitation spectra of reduced and oxidized cpYFP in the presence of designated reagents were obtained with a spectrofluorimeter (Model: CM1T101, HORIBA Jobin Yvon, Inc.) filled with nitrogen gas.
Using cpYFP purified from an E. coli expression system, excitation and emission fluorescence spectra were measured in response to reducing (10 mM reduced DTT) and oxidizing manipulations (1 mM aldrithiol). […] Extensive in vitro experiments were performed to determine the selectivity of cpYFP among physiologically relevant oxidants and metabolites. […] The cpYFP signal, however, was insensitive to hydrogen peroxide (H2O2) over a wide range of concentrations (0.1-10 mM) (FIG. 1c) and peroxynitrite (FIG. 2), and was decreased by hydroxyl radicals (.OH) (FIG. 1c) and nitric oxide (FIG. 2).

C=C(C)[C@H]1Cc2c(ccc3c2O[C@@H]2COc4cc(OC)c(OC)cc4[C@@H]2C3=O)O1 [Rotenone]
occurrence of superoxide flashes ([1]; rotenone 5 μM): virtually abolished | occurrence of superoxide flashes ([2]; rotenone 5 μM): virtually abolished

C=C1[C@@H]2CC[C@H]3[C@]4(C)C[C@H](O[C@@H]5O[C@H](CO)[C@@H](OS(=O)(=O)O)[C@H](OS(=O)(=O)O)[C@H]5OC(=O)CC(C)C)C[C@@H](C(=O)O)[C@H]4CC[C@]3(C2)[C@H]1O [atractyloside]
effect on superoxide flash frequency ([1]; atractyloside 20 μM): significantly augment superoxide flash frequency | rescue of superoxide flashes in ρ° cells [3]: cannot be rescued

CO[C@H](C/C=C\C=C\CC/C=C/C[C@H](C)/C=C/C(=C\C(=O)O)CC(=O)O)/C(C)=C\C=C(/C)C(=O)O [bongkrekic acid]
effect on superoxide flash amplitude ([1]; bongkrekic acid 100 μM): reducing their amplitude | effect on superoxide flash kinetics ([1]; bongkrekic acid 100 μM): abbreviating their kinetics | incidence of superoxide flashes ([1]; bongkrekic acid 100 μM): 33 % of control

CC1=NS(=O)(=O)c2cc(Cl)ccc2N1 [diazoxide]
effect on rebound flurry of superoxide flash activity after reoxygenation [4]: effectively protected the cells from the rebound flurry of superoxide flash activity

CC[n+]1c(-c2ccccc2)c2cc(N)ccc2c2ccc(N)cc21 [ethidium bromide]
incidence of superoxide flashes [2]: 60 % of control | incidence of superoxide flashes ([2]; wild type 63±6): 23±3 events per 1000 μm2 cell area per 100 s | cytochrome C oxidase subunit I (COX-1) expression [5]: 70 % of control

O=S(=O)(O)c1cc(O)c(O)c(S(=O)(=O)O)c1 [tiron]
effect on frequency and amplitude of flashes ([1]; tiron 1 mM): similarly diminished the frequency and amplitude of flashes

C160A/C182A: SEQ ID NO. 1 with both cysteines C160 and C182 substituted to alanine
response of the probe to superoxide after cysteine substitution ([1]; residue numbering of SEQ ID NO. 1): completely abolishes the response of the probe to superoxide

MnTMPyP
inhibition of flash activity ([1]; MnTMPyP 50 μM): 83% | flash amplitude (ΔF/F0) ([1]; MnTMPyP 50 μM, n=12, p<0.01 vs control): 0.18±0.02

antimycin A
occurrence of superoxide flashes ([1]; antimycin A 5 μg/ml): virtually abolished | occurrence of superoxide flashes ([2]; antimycin A 5 μg/ml): virtually abolished | effect on cellular ROS production measured with DCF (cellular ROS production): increases cellular ROS production

cpYFP: circularly permuted yellow fluorescent protein; superoxide probe of SEQ ID NO. 1, pericam without calmodulin and M13 domains
brightness of oxidized cpYFP versus fully reduced species ([6]; 1 mM aldrithiol vs 10 mM reduced DTT, excited at 488 nm): about five times brighter | cpYFP signal response to other metabolites ([6]; ATP, ADP, NAD(P)+, NAD(P)H and Ca2+ at physiological concentrations): negligible or only marginal effects | cpYFP signal response to hydroxyl radicals ([6]; Fenton reaction, 1 mM H2O2 plus 0.1 mM FeSO4, anaerobic): decreased | cpYFP signal response to hydrogen peroxide ([6]; H2O2 0.1-10 mM): insensitive | cpYFP signal response to peroxynitrite ([6]; SIN-1 1 mM in aerobic solution): insensitive | cpYFP signal response to nitric oxide ([6]; SIN-1 1 mM in anaerobic solution): decreased | cpYFP brightness dependence on pH ([6]; basic environments, e.g. mitochondrial matrix pH 8.0): brighter in basic environments | increase of cpYFP fluorescence in response to O2.− ([6]; xanthine/xanthine oxidase (2 mM/20 mU), aerobic, compared to fully reduced state): 420%
